Measured values taken from publication PMC12207360, “Hyperpolarization Modulation of the T‐Type hCav3.2 Channel by Human Synenkephalin [1–53], a Shrew Neurotoxin Analogue without Paralytic Effects” (Angewandte Chemie (International Ed. in English), 2025).
Marks after values point to notes of the source that are not given here.

Tests used:
[1] = test system: glutamyl endopeptidase (Glu-C); details: core N-terminal 1–41 part of BPP2; cited from earlier work
Procedure: (§1) To determine the connectivity of disulfide bonds in synthetic 2, enzymatic digestion and subsequent fragment peptide analysis were performed. […] However, due to high proteolytic stability, analysis of these degraded products provid ...

trypsin = details: core N-terminal 1–41 part of BPP2; cited from earlier work
Procedure: as §1

[2] = ColabFold-predicted structure, cited from earlier work
Description: To compare the structural properties of hSYN and BPP2, we next examined their three‐dimensional structures using ColabFold^[ [64] ^] (a Google Colab version of AlphaFold2^[ [65] ^] using MMSeq2^[ [66] ^]). […] The four helical structures of hSYN were hi ... || Figure 3 Proposed three‐dimensional structures of hSYN and BPP2. a) ColabFold‐predicted structure of hSYN. Disulfide bonds are highlighted in orange sticks. b) Proposed helices in the calculated structures. c) CD spectra of hSYN. Obs: Synthetic 2 (20 µM) was measured in 50 mM potassium phosphate (pH 7.0) at 25 °C. Calc: The ColabFold‐predicted structure was analyzed using the PDBMD2CD server. d) Calculated helicities (%) of each model by three methods based on the CD spectra. e) Superimposed structures of hSYN (blue white) and BPP2 (pale green). Key residues that interact between the helixes a ...

[3] = test system: mealworms (larva of Zophobas atratus); details: cited from earlier work
hCav2.2 = details: synthetic BPP2; cited from earlier work
Description: (§2) The short‐tailed shrew Blarina brevicauda is one of the rare venomous mammals that has potent neurotoxins in its saliva and effectively captures prey such as earthworms and small insects.^[ [25] ^] Since Blarina shrew venom causes severe pain in those bitten,^[ [26] ^] it was predicted that the venom targets specific ion channels related to pain and neurotransmission.^[ [27] ^] Recently, we isolated and characterized Blarina paralytic peptides (BPPs) 1 and 2 as major active substances against mealworms (Figure 1a).^[ [28] ^] BPP2 was chemically synthesized based on the gene sequence of the pre ...

[4] = test system: human T-type voltage-gated calcium channel (hCav3.2); details: 0.84 µM; synthetic BPP2; cited from earlier work
Description: as §2

[5] = biological target: human T-type voltage-gated calcium channel hCav3.2 (human) (UniProt O95180)
Sequence of UniProt O95180 (O95180 whole entry): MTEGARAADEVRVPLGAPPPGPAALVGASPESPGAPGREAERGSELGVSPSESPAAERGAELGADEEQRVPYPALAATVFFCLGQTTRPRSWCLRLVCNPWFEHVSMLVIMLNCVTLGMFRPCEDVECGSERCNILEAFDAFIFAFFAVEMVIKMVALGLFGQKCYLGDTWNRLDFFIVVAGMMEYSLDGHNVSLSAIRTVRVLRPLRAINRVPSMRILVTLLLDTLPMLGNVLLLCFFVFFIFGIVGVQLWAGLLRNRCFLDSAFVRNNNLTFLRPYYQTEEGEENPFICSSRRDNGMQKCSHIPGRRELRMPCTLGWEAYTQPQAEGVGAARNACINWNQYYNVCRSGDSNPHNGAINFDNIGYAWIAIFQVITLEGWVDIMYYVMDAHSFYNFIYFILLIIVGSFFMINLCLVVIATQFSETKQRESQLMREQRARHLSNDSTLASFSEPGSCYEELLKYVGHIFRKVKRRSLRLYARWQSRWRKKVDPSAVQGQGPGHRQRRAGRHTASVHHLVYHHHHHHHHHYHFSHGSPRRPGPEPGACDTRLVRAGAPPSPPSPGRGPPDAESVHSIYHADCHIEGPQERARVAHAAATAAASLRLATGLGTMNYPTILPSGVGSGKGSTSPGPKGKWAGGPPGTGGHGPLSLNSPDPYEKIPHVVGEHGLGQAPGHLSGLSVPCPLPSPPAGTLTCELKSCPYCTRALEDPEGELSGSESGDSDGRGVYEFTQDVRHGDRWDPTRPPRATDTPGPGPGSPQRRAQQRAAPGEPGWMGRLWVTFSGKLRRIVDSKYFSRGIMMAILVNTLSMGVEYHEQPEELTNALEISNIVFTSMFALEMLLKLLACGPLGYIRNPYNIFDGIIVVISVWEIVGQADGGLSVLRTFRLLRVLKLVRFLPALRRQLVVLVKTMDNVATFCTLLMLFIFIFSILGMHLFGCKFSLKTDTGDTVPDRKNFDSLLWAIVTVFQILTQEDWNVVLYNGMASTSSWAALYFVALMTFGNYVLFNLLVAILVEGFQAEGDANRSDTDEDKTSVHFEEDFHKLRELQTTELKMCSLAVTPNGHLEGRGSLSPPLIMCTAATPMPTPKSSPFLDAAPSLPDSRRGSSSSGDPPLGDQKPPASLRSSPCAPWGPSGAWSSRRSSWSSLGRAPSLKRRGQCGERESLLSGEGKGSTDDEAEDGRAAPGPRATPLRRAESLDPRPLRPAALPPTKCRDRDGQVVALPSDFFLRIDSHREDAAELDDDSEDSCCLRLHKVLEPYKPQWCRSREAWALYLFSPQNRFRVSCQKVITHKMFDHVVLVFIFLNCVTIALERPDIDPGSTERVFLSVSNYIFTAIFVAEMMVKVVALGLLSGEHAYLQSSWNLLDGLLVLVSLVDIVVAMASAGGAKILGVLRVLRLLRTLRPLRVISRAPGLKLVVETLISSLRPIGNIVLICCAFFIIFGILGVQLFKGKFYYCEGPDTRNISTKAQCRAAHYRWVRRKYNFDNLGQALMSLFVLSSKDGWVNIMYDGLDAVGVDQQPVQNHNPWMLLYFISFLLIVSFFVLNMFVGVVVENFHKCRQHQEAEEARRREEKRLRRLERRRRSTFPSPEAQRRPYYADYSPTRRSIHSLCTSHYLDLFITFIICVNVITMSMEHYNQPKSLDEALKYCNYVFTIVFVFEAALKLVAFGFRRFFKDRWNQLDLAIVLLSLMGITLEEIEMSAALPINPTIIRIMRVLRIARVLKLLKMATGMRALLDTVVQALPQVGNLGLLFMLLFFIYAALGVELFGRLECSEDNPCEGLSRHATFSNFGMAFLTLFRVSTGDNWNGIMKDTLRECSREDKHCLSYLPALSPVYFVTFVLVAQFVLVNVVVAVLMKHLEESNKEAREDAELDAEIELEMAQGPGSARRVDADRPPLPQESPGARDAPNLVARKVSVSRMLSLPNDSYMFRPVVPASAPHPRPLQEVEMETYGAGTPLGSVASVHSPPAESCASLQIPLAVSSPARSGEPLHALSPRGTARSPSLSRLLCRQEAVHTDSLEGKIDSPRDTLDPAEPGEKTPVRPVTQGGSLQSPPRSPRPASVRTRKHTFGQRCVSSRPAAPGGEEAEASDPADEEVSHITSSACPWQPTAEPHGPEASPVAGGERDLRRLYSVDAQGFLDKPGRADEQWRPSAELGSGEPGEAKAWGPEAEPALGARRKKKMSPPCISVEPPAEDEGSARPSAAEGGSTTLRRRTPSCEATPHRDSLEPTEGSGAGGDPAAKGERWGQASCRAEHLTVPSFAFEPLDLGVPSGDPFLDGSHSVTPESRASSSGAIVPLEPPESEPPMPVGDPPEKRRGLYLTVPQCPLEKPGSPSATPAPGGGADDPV

Substance: Blarina paralytic peptide 2 [BPP2]
- proteolytic stability toward Glu-C [1]: highly stable
- proteolytic stability toward trypsin (trypsin): highly stable
- Helicity, calculated, BestSel ([2]; BestSel server): 48.9%
- Helicity, calculated, K2D3 ([2]; K2D3 server): 54.9%
- Helicity, calculated, PDBMD2CD ([2]; PDBMD2CD server): 55.7%
- Paralyzed/total numbers ([3]; i.p., 5.6 µg/g bodyweight): 3/3 ^b)
- paralytic effect on mealworms ([3]; synthetic BPP2, intraperitoneal, 5.6 µg g−1 body weight, immediately after administration): reliably induces paralysis and convulsions in mealworms
- effect on hCav2.2 (hCav2.2): no significant effect on hCav2.2
- hyperpolarization shift in the activation of hCav3.2 [4]: –11 mV

Substance: human synenkephalin N-terminal part [1–53] (hSYN), Type II disulfide bond connectivity, synthetic compound 2 (peptide)
- hyperpolarization shift of hCav3.2 activation at 0.74 µM hSYN (2); whole-cell patch clamp on HEK293T cells expressing hCav3.2, n = 5 [5]: -15 mV
